Measured values as given in patent US20040072162A1, “Hiv peptides and nucleic acids encoding them for diagnosis and control of hiv infection” (priority 2000, published 2004).
Peptide text beside a SMILES is read from it.

What follows are compounds tested against HLA-A2 MHC-I (HLA-A*0204) (Homo sapiens, UniProt P04439, D140Y/D185E/D98H/E176V/E277Q/G131W/G231S/I119V/I121M/I166T/I218V/L300P/L318F/N151K/N90K/P208A/P217A/Q86G/Q94H/R138H/R169H/T345S) (assay: biochemical).

**Q.** Which Kd does the source give for `CC[C@H](C)[C@H](NC(=O)[C@@H](N)CC(N)=O)C(=O)N[C@@H](Cc1c[nH]c2ccccc12)C(=O)N[C@@H](C)C(=O)N[C@H](C(=O)N[C@@H](Cc1c[nH]cn1)C(=O)N[C@@H](C)C(=O)N[C@@H](CS)C(=O)N[C@H](C(=O)O)C(C)C)[C@@H](C)O` [8.75natV] (H-NIWATHACV-OH) here?
**A.** Its Kd is 57 nM.

**Q.** With `CC[C@H](C)[C@H](NC(=O)[C@H](CCC(N)=O)NC(=O)[C@H](CCC(=O)O)NC(=O)[C@H](CCC(N)=O)NC(=O)[C@H](CC(C)C)NC(=O)[C@@H](N)[C@@H](C)O)C(=O)NCC(=O)N[C@@H](Cc1c[nH]c2ccccc12)C(=O)N[C@@H](CCSC)C(=O)O` [8.56nat] (H-TLQEQIGWM-OH) as the compound, how does the Kd read?
**A.** Its Kd is 245 nM.

**Q.** For `CC(C)C[C@H](NC(=O)[C@@H](NC(=O)[C@@H](N)CCCNC(=N)N)[C@@H](C)O)C(=O)N[C@@H](CC(N)=O)C(=O)N[C@@H](C)C(=O)N[C@@H](Cc1c[nH]c2ccccc12)C(=O)N[C@H](C(=O)N[C@@H](CCCCN)C(=O)N[C@H](C(=O)O)C(C)C)C(C)C` [reference compound] (H-RTLNAWVKV-OH), which Kd is on record?
**A.** Its Kd is 170 nM.

**Q.** `CC[C@H](C)[C@H](NC(=O)[C@@H]1CCCN1C(=O)[C@@H]1CCCN1C(=O)[C@H](CC(C)C)NC(=O)[C@H](CC(C)C)NC(=O)[C@@H](N)CC(C)C)C(=O)N[C@@H](CCC(=O)O)C(=O)N[C@@H](CCCNC(=N)N)C(=O)N[C@H](C(=O)O)C(C)C` [8.14mod] (H-LLLPPIERV-OH) was tested. Which Kd did it give?
**A.** The Kd was 4.4 nM.
